Laboratory results published in publication PMC12775434, “Ultra-large virtual screening unveils potent agonists of the neuromodulatory orphan receptor GPR139” (Nature Communications, 2025).
Values joined by “and” are separate entries in the source; they are usually repeats but may differ in a detail not shown here. Equal values may be shown once. Read-outs that look alike come from different tables or passages of the source.

How the values were obtained:
Format in all cases: cell-based
[1] = target: T1, GPR139 (Homo sapiens, UniProt Q6DWJ6); assay: Ca2+ mobilization assay, antagonist mode (EC80 800 nM Lundbeck Cmp 1a after 20 min preincubation), GPR139-CHOk1; settings: individual replicates (Supplementary Figure 4)
T1 sequence (Q6DWJ6 1-353): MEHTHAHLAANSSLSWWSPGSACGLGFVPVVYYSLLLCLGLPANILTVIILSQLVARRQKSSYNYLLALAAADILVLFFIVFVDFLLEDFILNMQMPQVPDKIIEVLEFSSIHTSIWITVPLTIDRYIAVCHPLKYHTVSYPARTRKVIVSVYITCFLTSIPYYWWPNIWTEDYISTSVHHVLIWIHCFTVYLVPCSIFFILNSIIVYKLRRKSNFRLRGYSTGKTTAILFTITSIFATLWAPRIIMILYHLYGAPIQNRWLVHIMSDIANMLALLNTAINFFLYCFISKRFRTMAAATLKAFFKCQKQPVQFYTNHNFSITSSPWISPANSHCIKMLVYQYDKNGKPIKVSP
Method in brief: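 Fluo-4-loaded GPR139-CHOk1 cells in HEPES-buffered HBSS (pH 7.4, 2.5 mM probenecid) given test compounds at 10 µM, then after 20 min challenged with 800 nM Lundbeck Cmp 1a (EC80). Calcium fluorescence read at 37 °C, 485/525 nm.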

[2] = target: T2, human muscarinic acetylcholine M1 receptor (M1R) (Homo sapiens, UniProt P11229); assay: Ca2+ mobilization counter-screen in M1R-CHOk1 cells; settings: individual replicates (Supplementary Figure 5)
T2 sequence (P11229 1-460): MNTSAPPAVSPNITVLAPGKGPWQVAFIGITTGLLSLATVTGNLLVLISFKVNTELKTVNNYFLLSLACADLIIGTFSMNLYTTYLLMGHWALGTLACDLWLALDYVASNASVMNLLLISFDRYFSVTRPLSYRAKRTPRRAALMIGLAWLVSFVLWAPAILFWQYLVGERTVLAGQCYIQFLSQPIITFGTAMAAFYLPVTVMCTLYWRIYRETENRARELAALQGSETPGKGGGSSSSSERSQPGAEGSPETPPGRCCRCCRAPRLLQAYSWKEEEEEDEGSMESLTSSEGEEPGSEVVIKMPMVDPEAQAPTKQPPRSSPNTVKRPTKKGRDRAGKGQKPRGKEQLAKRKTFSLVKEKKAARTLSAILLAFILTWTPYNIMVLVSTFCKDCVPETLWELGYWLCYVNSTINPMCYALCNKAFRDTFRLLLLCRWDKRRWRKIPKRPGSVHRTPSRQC
Description: Primary screening and pharmacological characterization of compounds were performed using a CHO-K1 cell line that stably expresses human GPR139 (GPR139-CHOk1). The GPR139-CHOk1 cell line was kindly provided by H. Lundbeck A/S, Denmark[24]. GPR139-CHOk1 cells were grown in Ham’s F-12 Kaighn’s Modification Medium (ThermoFisher #21127030) supplemented with 10% dialyzed fetal bovine serum (US origin, ThermoFisher #26400044), 100 units/mL Penicillin-Streptomycin (ThermoFisher #15140122), and 1 mg/mL Geneticin (ThermoFisher #11811031). […] M1R-CHOk1 cells were purchased from The Missouri S&T cDNA Resource Center (#CEM100TN00). M1R-CHOk1 cells were grown in Ham’s F12 Medium (ThermoFisher #21765029) supplemented with 10% fetal bovine serum (Brazilian origin, ThermoFisher #10270106), 100 units/mL Penicillin-Streptomycin, and 0.25 mg/mL Geneticin. HEK293A cells transiently transfected with GPR139 were used for additional pharmacological assessment of signaling pathways activated by GPR139. HEK239A cells were generously provided by Dr. Asuka Inoue, Tohoku University, Japan. HEK293A cells were grown in Dulbecco’s Modified Eagle Medium (ThermoFisher #31966047) supplemented with 10% dialyzed fetal bovine serum and 100 units/mL Penicillin-Streptomycin. Cell lines were maintained at 37 °C in humidified incubator equilibrated with 5% CO2.
30,000 GPR139- or M1R-CHOk1 cells/well were seeded in black clear bottom tissue culture treated 96-well plates (Greiner #655090) and grown for 20–24 h. Cells were washed with HEPES buffer (Hank’s Balanced Salt Solution (HBBS) supplemented with 20 mM HEPES, 1 mM MgCl2, and 1 mM CaCl2; pH 7.4). Cells were loaded with 50 µL of 2 µM Fluo-4 AM dye (ThermoFisher #F14202) in HEPES buffer supplemented with 2.5 mM probenecid and 0.01% Pluronic F-68 (ThermoFisher #24040032) for 1 h at 37 °C. Cells were washed with HEPES buffer. 50 µL HEPES buffer supplemented with 2.5 mM probenecid was added, and the cells were incubated for 10 min at 37 °C before measurement. 50 µL test compounds diluted in HEPES buffer from DMSO stocks (final DMSO concentration of maximally 0.3%) were added automatically after baseline measurements. The intracellular calcium mobilization was measured on a FlexStation 3 Multimode Microplate Reader (Molecular Devices) at 37 °C with filters for excitation of 485 nm and emission of 525 nm.

[3] = target: T1, GPR139; assay: Ca2+ mobilization assay, agonist mode, stable GPR139-CHOk1 cell line; settings: for Emax: normalized to Lundbeck Cmp 1a, read-out: Emax (%) Ca2+
Method in brief: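 Agonist activity of compounds is assessed in stably transfected CHO-K1 cells using the calcium dye Fluo-4 at 37 °C in HEPES-buffered HBSS (pH 7.4). Efficacy is expressed relative to the reference agonist Lundbeck Cmp 1a, set as 100%.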

[4] = Agonist mode, individual replicates (Supplementary Figure 4)
[5] = Supplementary Table 2, mean ± SEM, read-out: pEC50 Ca2+ (converted)
[6] = Supplementary Table 2, mean ± SEM
[7] = log [Compound] M = -4.5, individual replicate columns
[8] = log [Compound] M = -5.0, individual replicate columns
[9] = log [Compound] M = -5.5, individual replicate columns
[10] = log [Compound] M = -6.0, individual replicate columns
[11] = log [Compound] M = -6.5, individual replicate columns
[12] = log [Compound] M = -7.0, individual replicate columns
[13] = log [Compound] M = -7.5, individual replicate columns
[14] = log [Compound] M = -8.0, individual replicate columns
[15] = log [Compound] M = -8.5, individual replicate columns
[16] = log [Compound] M = -9.0, individual replicate columns

Row | Structure (SMILES) | Ca2+ signal (% of Cmp 1a) [1] | Ca2+ signal (% of Carbachol) [2] | Ca2+ signal (% of Cmp 1a) [3, 4] | change in potency with larger substituents on the thiophene ring ([3]; Ca2+ mobilization) | EC50 [3, 5] [nM] | Emax [3, 6] [%] | Ca2+ signal (% of Cmp 1a) [3, 7] | Ca2+ signal (% of Cmp 1a) [3, 8] | Ca2+ signal (% of Cmp 1a) [3, 9] | Ca2+ signal (% of Cmp 1a) [3, 10] | Ca2+ signal (% of Cmp 1a) [3, 11] | Ca2+ signal (% of Cmp 1a) [3, 12] | Ca2+ signal (% of Cmp 1a) [3, 13] | Ca2+ signal (% of Cmp 1a) [3, 14] | Ca2+ signal (% of Cmp 1a) [3, 15] | Ca2+ signal (% of Cmp 1a) [3, 16] | fold decrease in potency relative to a similar phenyl substituted compound (1.3) ([3]; Ca2+ mobilization EC50) | EC50 ([3]; GPR139-CHOk1, read-out: EC50, Ca2+ mobilization) [nM] | fold decrease in potency relative to parent compound 1 ([3]; Ca2+ mobilization EC50)
1 | CCc1ccc(-c2nc(CC(=O)NC(C)c3ccccc3)no2)s1 (stereo not drawn) [Compound 1.12, CCC1=CC=C(C2=NC(CC(NC(C3=CC=CC=C3)C)=O)=NO2)S1] | 15 % of Cmp 1a and 8 % of Cmp 1a and -3.33 % of Cmp 1a | 8 % of Carbachol and 5.44 % of Carbachol and 4 % of Carbachol | 86 % of Cmp 1a and 84 % of Cmp 1a and 95 % of Cmp 1a | three-fold reduction to a complete loss of activity | 398 | 93 ± 4 | 90 % of Cmp 1a and 89 % of Cmp 1a and 81 % of Cmp 1a and 78 % of Cmp 1a | 105 % of Cmp 1a and 80 % of Cmp 1a and 63 % of Cmp 1a and 94 % of Cmp 1a | 111 % of Cmp 1a (2×) and 80 % of Cmp 1a and 55 % of Cmp 1a | 66 % of Cmp 1a and 61 % of Cmp 1a and 43 % of Cmp 1a and 78 % of Cmp 1a | 49 % of Cmp 1a and 48 % of Cmp 1a and 28 % of Cmp 1a and 56 % of Cmp 1a | 21 % of Cmp 1a and 33 % of Cmp 1a and 9 % of Cmp 1a and 38 % of Cmp 1a | 6 % of Cmp 1a and 10 % of Cmp 1a and 3.55 % of Cmp 1a and 24 % of Cmp 1a | -0.628 % of Cmp 1a and 0.281 % of Cmp 1a and 16 % of Cmp 1a and 5 % of Cmp 1a | -1.24 % of Cmp 1a and 1.81 % of Cmp 1a and 5 % of Cmp 1a and 9 % of Cmp 1a | 6.67 % of Cmp 1a and -5 % of Cmp 1a and 1.66 % of Cmp 1a and 6 % of Cmp 1a | – | – | –
2 | Cc1cccc(-c2nc(CC(=O)NC(C)c3ccccc3)no2)n1 (stereo not drawn) [Compound 1.13, CC(C1=CC=CC=C1)NC(CC2=NOC(C3=NC(C)=CC=C3)=N2)=O] | 7 % of Cmp 1a and 16 % of Cmp 1a and -17 % of Cmp 1a | -3 % of Carbachol and 3 % of Carbachol and 7 % of Carbachol | 87 % of Cmp 1a and 109 % of Cmp 1a and 94 % of Cmp 1a | – | 398 | 95 ± 10 | 113 % of Cmp 1a and 100 % of Cmp 1a and 105 % of Cmp 1a and 55 % of Cmp 1a | 98 % of Cmp 1a and 101 % of Cmp 1a and 89 % of Cmp 1a and 78 % of Cmp 1a | 85 % of Cmp 1a and 87 % of Cmp 1a and 83 % of Cmp 1a and 50 % of Cmp 1a | 76 % of Cmp 1a and 73 % of Cmp 1a (2×) and 42 % of Cmp 1a | 49 % of Cmp 1a (2×) and 40 % of Cmp 1a and 22 % of Cmp 1a | 28 % of Cmp 1a and 33 % of Cmp 1a and 12 % of Cmp 1a (2×) | 0 % of Cmp 1a and 14 % of Cmp 1a and -10 % of Cmp 1a and 13 % of Cmp 1a | 8 % of Cmp 1a and 0.667 % of Cmp 1a and -4 % of Cmp 1a and -5 % of Cmp 1a | 8 % of Cmp 1a and -4.67 % of Cmp 1a and -2.67 % of Cmp 1a and -3 % of Cmp 1a | 2 % of Cmp 1a (2×) and -0.333 % of Cmp 1a and -15 % of Cmp 1a | 4- to 16 fold | – | –
3 | Cc1ccc(-c2nc(CC(=O)NC(C)c3ccccc3)no2)cc1 (stereo not drawn) [Compound 1.14, CC(C1=CC=CC=C1)NC(CC2=NOC(C3=CC=C(C)C=C3)=N2)=O] | 7 % of Cmp 1a and -0.667 % of Cmp 1a and 13 % of Cmp 1a | -9 % of Carbachol and -1 % of Carbachol and 10 % of Carbachol | 71 % of Cmp 1a and 82 % of Cmp 1a and 46 % of Cmp 1a | – | – | 89 ± 15 | 97 % of Cmp 1a and 92 % of Cmp 1a and 89 % of Cmp 1a and 44 % of Cmp 1a | 79 % of Cmp 1a and 86 % of Cmp 1a and 77 % of Cmp 1a and 48 % of Cmp 1a | 61 % of Cmp 1a and 79 % of Cmp 1a and 69 % of Cmp 1a and 48 % of Cmp 1a | 61 % of Cmp 1a and 52 % of Cmp 1a and 58 % of Cmp 1a and 40 % of Cmp 1a | 42 % of Cmp 1a and 32 % of Cmp 1a and 38 % of Cmp 1a and 28 % of Cmp 1a | 17 % of Cmp 1a and 12 % of Cmp 1a and 27 % of Cmp 1a and 22 % of Cmp 1a | 5.33 % of Cmp 1a and 7 % of Cmp 1a and 30 % of Cmp 1a and -6 % of Cmp 1a | 12 % of Cmp 1a and 2.67 % of Cmp 1a (2×) and 0.667 % of Cmp 1a | -1.67 % of Cmp 1a and -4 % of Cmp 1a and 1.67 % of Cmp 1a | 8 % of Cmp 1a and 10 % of Cmp 1a and -3.67 % of Cmp 1a and 1 % of Cmp 1a | – | 400 | –
4 | Cc1nc(-c2nc(CC(=O)NC(C)c3ccccc3)no2)cs1 (stereo not drawn) [Compound 1.15, CC(C1=CC=CC=C1)NC(CC2=NOC(C3=CSC(C)=N3)=N2)=O] | 7 % of Cmp 1a and 2.33 % of Cmp 1a | 3 % of Carbachol and 14 % of Carbachol | 96 % of Cmp 1a and 108 % of Cmp 1a and 104 % of Cmp 1a | – | 501 | 105 ± 4 | 94 % of Cmp 1a and 99 % of Cmp 1a and 118 % of Cmp 1a and 102 % of Cmp 1a | 101 % of Cmp 1a and 90 % of Cmp 1a and 112 % of Cmp 1a and 100 % of Cmp 1a | 104 % of Cmp 1a and 84 % of Cmp 1a and 109 % of Cmp 1a and 112 % of Cmp 1a | 70 % of Cmp 1a and 62 % of Cmp 1a and 81 % of Cmp 1a and 93 % of Cmp 1a | 46 % of Cmp 1a (2×) and 31 % of Cmp 1a and 57 % of Cmp 1a | 12 % of Cmp 1a and 11 % of Cmp 1a and 21 % of Cmp 1a and 17 % of Cmp 1a | 8 % of Cmp 1a and -0.333 % of Cmp 1a and 13 % of Cmp 1a and 5.67 % of Cmp 1a | 1.67 % of Cmp 1a and -3.67 % of Cmp 1a and 8 % of Cmp 1a and -2 % of Cmp 1a | 1 % of Cmp 1a and 15 % of Cmp 1a and 11 % of Cmp 1a and 10 % of Cmp 1a | 0.667 % of Cmp 1a and 7 % of Cmp 1a (2×) and 12 % of Cmp 1a | – | – | 3- to 25 fold
